# Laboratory results: US10980776B2, “Synergistic pharmaceutical combination for the treatment of squamous cell carcinoma of head and neck” (Piramal Enterprises Limited, priority 2011, dated 2021)
# Tested on: Detroit-562 cells
# Test: Combination studies (single and sequential combination dosing), % cytotoxicity in Detroit-562 cells
# Settings: Homo sapiens, Detroit 562, Detroit-562; for cytotoxicity at 14.1 µM: single agent at IC50 (compound B 14.1 μM); for cytotoxicity at 25.2 µM: single agent at IC70 (compound B 25.2 μM)
# Description: Logarithmically growing cells were plated at a density of 3×10^3 cells/well and allowed to recover overnight. […] After 72 hours, cell toxicity was determined by CCK-8 (Cell Counting Kit-8) reagent (Dojindo Molecular Technologies, Japan); WST-8 (2-(2-methoxy-4-nitrophenyl)-3-(4-nitrophenyl)-5-(2, 4-disulfophenyl)]-2H-tetrazolium, monosodium salt) assay. In accordance with the manufacturer's instructions, 5 μl/well CCK-8 reagent was added and plates were incubated for 2 hours. The toxicity was determined by measuring the absorbance on Tecan Sapphire multi-fluorescence micro-plate reader (Tecan, Germany, GmbH) at a wavelength of 450 nm corrected to 650 nm and normalized to controls.
# CCK-8 allows convenient assays using Dojindo's tetrazolium salt, WST [8[(2-(2-methoxy-4-nitrophenyl)-3-(4-nitrophenyl)-5-(2,4-disulfophenyl)-2H-tetrazolium, monosodium salt], which produces a water-soluble formazan dye upon bioreduction in the presence of an electron carrier, 1-Methoxy PMS. CCK-8 solution is added directly to the cells; no pre-mixing of components is required. CCK-8 is a sensitive nonradioactive colorimetric assay for determining the number of viable cells in cell proliferation and cytotoxicity assays. WST-8 is bio-reduced by cellular dehydrogenases to an orange formazan product that is soluble in tissue culture medium. The amount of formazan produced is directly proportional to the number of living cells. The detection sensitivity of cell proliferation assays using WST-8 is higher than assays using the other tetrazolium salts such as MIT, XTT, MTS or WST-1. Optical Density was determined at measurement wavelength of 450 nm and reference wave length of 630 nm.
# (§1) Sorafenib in the following dose of final concentration 1.8 μM and compound A in the following doses of final concentration 0.5 μM, 1.3 μM and 12.1 μM were analyzed in single dose and in all possible combinations of the dose range for the two anticancer agents mentioned above. The sequence of treatment is as follows; Detroit-562 cells were treated with sorafenib for 0 to 24 hrs. At the end of 24 hrs the cells were washed two times with plain MEM medium. Fresh MEM with 10% serum (200 μL/well) was added, followed by treatment with compound A from 24 hrs to 96 hrs.
# as §1, with “compound B” for “compound A”, “concentration 2.7” for “concentration 0.5”, “μM, 14.1” for “μM, 1.3”, “and 25.2” for “and 12.1”, “follows; the” for “follows;”
# as §1, with “Lapatinib” for “Sorafenib”, “1” for “1.8”, “follows; the” for “follows;”, “lapatinib” for “sorafenib”
# Lapatinib in the following dose of final concentration 1.0 μM and compound B in the following doses of final concentration 2.7 μM, 14.1 μM and 25.2 μM were analyzed in single dose and in all possible combinations of the dose range for the two drugs mentioned above. The sequence of treatment is as follows; the Detroit-562 cells were treated with lapatinib for 0 to 24 hrs. At the end of 24 hrs the cells were washed two times with plain MEM medium. Fresh MEM with 10% serum (200 μL/well) was added, followed by treatment with compound A from 24 hrs to 96 hrs.
smiles,measurement,setting,value
"CN1CC[C@@H](c2c(O)cc(O)c3c(=O)cc(-c4ccc(C(F)(F)F)cc4Cl)oc23)[C@@H]1CO.Cl [Compound B, (+)-trans-2-(2-chloro-4-trifluoromethyl-phenyl)-5,7-dihydroxy-8-(2-hydroxymethyl-1-methyl-pyrrolidin-3-yl)-chromen-4-one hydrochloride]",cytotoxicity at 2.7 µM,single agent at IC30 (lapatinib 1.0 μM; compound B 2.7 μM),15%
same,cytotoxicity at 2.7 µM,single agent at IC30 (sorafenib 1.8 μM; compound B 2.7 μM),15%
same,cytotoxicity at 14.1 µM,lapatinib study,18%
same,cytotoxicity at 14.1 µM,sorafenib study,19%
same,cytotoxicity at 25.2 µM,lapatinib study,30%
same,cytotoxicity at 25.2 µM,sorafenib study,26%
